ChEMBL document CHEMBL3137667, “[Drug-induced liver injury; fourteenth updated edition of the bibliographic database of liver injuries and related drugs]” (Gastroenterol Clin Biol, 2004)

How the values were obtained:
[1] = human
[2] = Highest frequency of moderate liver toxicity observed during clinical trials, expressed as a percentage. [column '% BIOL' in source]; details: human
[3] = human; remark: listed apart in the source
[4] = Times to onset, minimal and maximal, observed in the indexed observations. [column 'DELAI' in source]; details: human
[5] = human; remark: listed apart in the source
[6] = human; remark: listed apart in the source
[7] = human; remark: listed apart in the source
[8] = human, serum
[9] = human; remark: listed apart in the source
[10] = human; remark: listed apart in the source
[11] = human, serum; remark: listed apart in the source
[12] = human; remark: listed apart in the source
[13] = Highest frequency of acute liver toxicity observed during clinical trials, expressed as a percentage. [column '% AIGUE' in source]; details: human
[14] = human, serum, 4383 h
[15] = human; remark: listed apart in the source
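Wherever Hepatotoxicity (association with vascular disease) is given: count of indexed literature references reporting vascular liver injury in humans, e.g. peliosis hepatitis, hepatic veno-occlusive disease or Budd-Chiari syndrome.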
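Wherever Hepatotoxicity (benign tumour) is given: value is a count of indexed literature references citing a benign tumour confirmed by histopathology.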
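Wherever Hepatotoxicity (choleostasis) is given: human cholestatic liver injury, shown by histopathology or by peak ALT or AST elevation over alkaline phosphatase ratio below 2, value counts indexed literature reports.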
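Wherever Hepatotoxicity (chronic liver disease) is given: chronic liver injury confirmed by histopathology or persistently raised serum aminotransferase activity beyond 6 months, value given as the count of indexed literature references.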
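Wherever Hepatotoxicity (cirrhosis) is given: value is a count of indexed literature references reporting cirrhosis confirmed by histopathology.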
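Wherever Hepatotoxicity (cytolytic) is given: human cytolytic liver injury, shown by histopathology or by a ratio above 5 of peak ALT or AST elevation to alkaline phosphatase elevation, value counts indexed references.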
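Wherever Hepatotoxicity (granulomatous hepatitis) is given: value is a count of indexed literature references reporting granulomatous liver disease confirmed by histopathology.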
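Wherever Hepatotoxicity (malignant tumour) is given: malignant tumour confirmed by histopathology, value gives the count of indexed literature references reporting it.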
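Wherever Hepatotoxicity (severe hepatitis) is given: human clinical data: severe hepatitis, meaning potentially life-threatening liver failure or clinically observed cases, the value counts how many indexed literature references report it.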
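Wherever Hepatotoxicity (steatosis) is given: steatosis confirmed by histopathology, value is the count of indexed references.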

NCC(CC(=O)O)c1ccc(Cl)cc1 (stereo not given) [BACLOFEN]
0: Hepatotoxicity (steatosis) [3] | Hepatotoxicity (benign tumour) [5] | Hepatotoxicity (cirrhosis) [6] | Hepatotoxicity (granulomatous hepatitis) [7] | Hepatotoxicity (association with vascular disease) [9] | Hepatotoxicity (malignant tumour) [10] | Hepatotoxicity (chronic liver disease) [14] | Hepatotoxicity (severe hepatitis) [15]
1: Hepatotoxicity (cytolytic) [1] | Hepatotoxicity (moderate) [8] | Hepatotoxicity (choleostasis) [12]
3: Hepatotoxicity (acute) [11]
3 weeks - 2 months: Hepatotoxicity (time to onset) [4]
0%: Hepatotoxicity (moderate) [2] | Hepatotoxicity (acute) [13]

COCCCOc1ccnc(C[S+]([O-])c2nc3ccccc3[nH]2)c1C (stereo not given) [RABEPRAZOLE]
0: Hepatotoxicity (steatosis) [3] | Hepatotoxicity (benign tumour) [5] | Hepatotoxicity (cirrhosis) [6] | Hepatotoxicity (granulomatous hepatitis) [7] | Hepatotoxicity (moderate) [8] | Hepatotoxicity (association with vascular disease) [9] | Hepatotoxicity (malignant tumour) [10] | Hepatotoxicity (choleostasis) [12] | Hepatotoxicity (chronic liver disease) [14]
0%: Hepatotoxicity (moderate) [2] | Hepatotoxicity (acute) [13]
1: Hepatotoxicity (cytolytic) [1] | Hepatotoxicity (acute) [11] | Hepatotoxicity (severe hepatitis) [15]
4 weeks: Hepatotoxicity (time to onset) [4]

CN1CCOC(c2ccccc2)c2ccccc2C1 (stereo not given) [NEFOPAM]
1: Hepatotoxicity (moderate) [8]
0: Hepatotoxicity (cytolytic) [1] | Hepatotoxicity (steatosis) [3] | Hepatotoxicity (benign tumour) [5] | Hepatotoxicity (cirrhosis) [6] | Hepatotoxicity (granulomatous hepatitis) [7] | Hepatotoxicity (association with vascular disease) [9] | Hepatotoxicity (malignant tumour) [10] | Hepatotoxicity (acute) [11] | Hepatotoxicity (choleostasis) [12] | Hepatotoxicity (chronic liver disease) [14] | Hepatotoxicity (severe hepatitis) [15]
4 weeks: Hepatotoxicity (time to onset) [4]
0%: Hepatotoxicity (acute) [13]
14.3%: Hepatotoxicity (moderate) [2]

CC(Cc1ccccc1)NCc1ccccc1Cl (stereo not given) [CLOBENZOREX]
1: Hepatotoxicity (cytolytic) [1] | Hepatotoxicity (acute) [11]
0%: Hepatotoxicity (moderate) [2] | Hepatotoxicity (acute) [13]
2 weeks: Hepatotoxicity (time to onset) [4]
0: Hepatotoxicity (steatosis) [3] | Hepatotoxicity (benign tumour) [5] | Hepatotoxicity (cirrhosis) [6] | Hepatotoxicity (granulomatous hepatitis) [7] | Hepatotoxicity (moderate) [8] | Hepatotoxicity (association with vascular disease) [9] | Hepatotoxicity (malignant tumour) [10] | Hepatotoxicity (choleostasis) [12] | Hepatotoxicity (chronic liver disease) [14] | Hepatotoxicity (severe hepatitis) [15]

O=C(O)Cc1cn(-c2ccccc2)nc1-c1ccc(Cl)cc1 [LONAZOLAC]
0: Hepatotoxicity (cytolytic) [1] | Hepatotoxicity (steatosis) [3] | Hepatotoxicity (benign tumour) [5] | Hepatotoxicity (cirrhosis) [6] | Hepatotoxicity (granulomatous hepatitis) [7] | Hepatotoxicity (moderate) [8] | Hepatotoxicity (association with vascular disease) [9] | Hepatotoxicity (malignant tumour) [10] | Hepatotoxicity (choleostasis) [12] | Hepatotoxicity (chronic liver disease) [14] | Hepatotoxicity (severe hepatitis) [15]
1.3%: Hepatotoxicity (acute) [13]
1: Hepatotoxicity (acute) [11]
0%: Hepatotoxicity (moderate) [2]
1 month: Hepatotoxicity (time to onset) [4]

Cn1nnnc1SCC1=C(C(=O)O)N2C(=O)[C@@H](NC(=O)[C@H](O)c3ccccc3)[C@H]2SC1 [CEFAMANDOLE]
1: Hepatotoxicity (choleostasis) [12]
4 days: Hepatotoxicity (time to onset) [4]
2: Hepatotoxicity (acute) [11]
0: Hepatotoxicity (cytolytic) [1] | Hepatotoxicity (steatosis) [3] | Hepatotoxicity (benign tumour) [5] | Hepatotoxicity (cirrhosis) [6] | Hepatotoxicity (granulomatous hepatitis) [7] | Hepatotoxicity (association with vascular disease) [9] | Hepatotoxicity (malignant tumour) [10] | Hepatotoxicity (chronic liver disease) [14] | Hepatotoxicity (severe hepatitis) [15]
75%: Hepatotoxicity (moderate) [2]
13: Hepatotoxicity (moderate) [8]
2.4%: Hepatotoxicity (acute) [13]

CCNC1=Nc2ccc(Cl)cc2C(C)(c2ccccc2)O1 (stereo not given) [ETIFOXINE]
0: Hepatotoxicity (steatosis) [3] | Hepatotoxicity (benign tumour) [5] | Hepatotoxicity (cirrhosis) [6] | Hepatotoxicity (granulomatous hepatitis) [7] | Hepatotoxicity (moderate) [8] | Hepatotoxicity (association with vascular disease) [9] | Hepatotoxicity (malignant tumour) [10] | Hepatotoxicity (choleostasis) [12] | Hepatotoxicity (chronic liver disease) [14] | Hepatotoxicity (severe hepatitis) [15]
0%: Hepatotoxicity (moderate) [2] | Hepatotoxicity (acute) [13]
1: Hepatotoxicity (cytolytic) [1] | Hepatotoxicity (acute) [11]
11 days: Hepatotoxicity (time to onset) [4]

SPIRAMYCIN
0%: Hepatotoxicity (moderate) [2] | Hepatotoxicity (acute) [13]
4: Hepatotoxicity (acute) [11]
1 day - 4 weeks: Hepatotoxicity (time to onset) [4]
3: Hepatotoxicity (choleostasis) [12]
0: Hepatotoxicity (cytolytic) [1] | Hepatotoxicity (steatosis) [3] | Hepatotoxicity (benign tumour) [5] | Hepatotoxicity (cirrhosis) [6] | Hepatotoxicity (granulomatous hepatitis) [7] | Hepatotoxicity (moderate) [8] | Hepatotoxicity (association with vascular disease) [9] | Hepatotoxicity (malignant tumour) [10] | Hepatotoxicity (chronic liver disease) [14] | Hepatotoxicity (severe hepatitis) [15]

CCCCCCCCCCC[C@@H](C[C@@H]1OC(=O)[C@H]1CCCCCC)OC(=O)[C@H](CC(C)C)NC=O [ORLISTAT]
1: Hepatotoxicity (cytolytic) [1] | Hepatotoxicity (choleostasis) [12] | Hepatotoxicity (severe hepatitis) [15]
0%: Hepatotoxicity (moderate) [2] | Hepatotoxicity (acute) [13]
0: Hepatotoxicity (steatosis) [3] | Hepatotoxicity (benign tumour) [5] | Hepatotoxicity (cirrhosis) [6] | Hepatotoxicity (granulomatous hepatitis) [7] | Hepatotoxicity (moderate) [8] | Hepatotoxicity (association with vascular disease) [9] | Hepatotoxicity (malignant tumour) [10] | Hepatotoxicity (chronic liver disease) [14]
3 weeks - 1.5 months: Hepatotoxicity (time to onset) [4]
2: Hepatotoxicity (acute) [11]

O=C(CCBr)N1CCN(C(=O)CCBr)CC1 [PIPOBROMAN]
0%: Hepatotoxicity (moderate) [2] | Hepatotoxicity (acute) [13]
1: Hepatotoxicity (cytolytic) [1] | Hepatotoxicity (acute) [11]
2 months: Hepatotoxicity (time to onset) [4]
0: Hepatotoxicity (steatosis) [3] | Hepatotoxicity (benign tumour) [5] | Hepatotoxicity (cirrhosis) [6] | Hepatotoxicity (granulomatous hepatitis) [7] | Hepatotoxicity (moderate) [8] | Hepatotoxicity (association with vascular disease) [9] | Hepatotoxicity (malignant tumour) [10] | Hepatotoxicity (choleostasis) [12] | Hepatotoxicity (chronic liver disease) [14] | Hepatotoxicity (severe hepatitis) [15]

NC(CO)C(=O)NNCc1ccc(O)c(O)c1O (stereo not given) [BENSERAZIDE]
< 3 months: Hepatotoxicity (time to onset) [4]
1: Hepatotoxicity (acute) [11]
3.3%: Hepatotoxicity (acute) [13]
0: Hepatotoxicity (cytolytic) [1] | Hepatotoxicity (steatosis) [3] | Hepatotoxicity (benign tumour) [5] | Hepatotoxicity (cirrhosis) [6] | Hepatotoxicity (granulomatous hepatitis) [7] | Hepatotoxicity (moderate) [8] | Hepatotoxicity (association with vascular disease) [9] | Hepatotoxicity (malignant tumour) [10] | Hepatotoxicity (choleostasis) [12] | Hepatotoxicity (chronic liver disease) [14] | Hepatotoxicity (severe hepatitis) [15]
0%: Hepatotoxicity (moderate) [2]
